Columns and labels:
[1] = system: C57BL/6J mice; experiment: Murine model of contrast nephropathy (Reference Example 1); type: in vivo, mouse
Procedure: Murine models of contrast nephropathy were constructed.
Left kidneys were extracted from C57BL/6J mice (male, aged 9-12 weeks, Charles River Laboratories International), and 14 days later, right kidney pedicles were ligated for 30 minutes. Thereafter, reperfusion was carried out. For the iomeprol-treated group, 200 μL of iomeprol was administered from the tail vein after 24 hours from the start of reperfusion. For the control group, 200 μL of normal saline instead of iomeprol was administered from the tail vein. After 48 hours from the administration, the animals in both groups were euthanized and evaluated.
For 24 hours before euthanization, urine samples were collected using a metabolic cage. […] The collected blood samples were centrifuged for 30 minutes at 800 g at room temperature to separate and collect the serum. The obtained urine and serum samples were stored at −80° C. until analysis.
For biochemical evaluation of renal injuries, serum creatinine (Cr) and urea nitrogen (MN) levels, and urinary Cr and β-D-N-acetylglucosaminidase (NAG) were measured. Serum MN and Cr measurements were contracted to Oriental Yeast Co., Ltd., and urinary NAG and Cr measurements were to SRL, Inc.
The obtained thin slices were stained with periodic acid-Shiff (PAS) and immunostained with the renal injury marker Kidney Injury Molecule-1 (KIM-1). The immunostaining was performed using VECTASTAIN Elite ABC Kit (Vector Laboratories, Inc.).

[2] = target: megalin (Rattus norvegicus, UniProt P98158); experiment: Direct binding of contrast solid-phased magnetic beads to megalin in brush border proteins, WB with anti-megalin antibody (Reference Example 4); design: the cortex portions of Sprague-Dawley (SD) rats were ground to prepare a suspension; from tissue; host or cells: Sprague-Dawley rat kidney cortex (brush border proteins, method of Orlando et al.); details: 0 mM and 10 mM iomeprol solid-phased beads; rat BBP 1 mg/mL; 4° C., 4 h; FIG. 20
Procedure: Direct binding between an iodinated contrast medium and megalin was verified using contrast solid-phased magnetic beads.
A starting powder of iodinated contrast medium was dissolved, just before use, in glycidylmethacrylate-coated magnetic beads (FG Beads®, particle size: 0.2 μm, produced by Tamagawa Seiki Co., Ltd.) to initiate chemical bonding between surface carboxyl groups and hydroxyl groups present in the contrast medium, whereby contrast solid-phased magnetic beads were prepared.
The contrast medium iomeprol was purchased from BOC Science.
At feed concentrations of 0 mM, 3 mM and 10 mM, iomeprol was brought to a solid phase by chemical bonding. The preparation of the iomeprol solid-phased beads was contracted to Tamagawa Seiki Co., Ltd.
According to the method of Orlando, et al. (Proc. Natl. Acad. Sci. USA, 1992, vol. 89, p. 6698-6702), the cortex portions of Sprague-Dawley (SD) rats were ground to prepare a suspension, which was adjusted to a protein concentration of 1 mg/mL to obtain a BBP solution.
Five milligrams each of the 0 mM and 10 mM contrast solid-phased magnetic beads were dispersed and washed in 200 μL of 100 mM KCL buffer (20 mM HEPES-NaOH (pH 7.9), 100 mM KCl, 1 mM MgCl2, 0.2 mM CaCl2), 0.2 mM EDTA, 10% (v/v) glycerol, 0.1% NP-40, 1 mM DTT, 0.2 mM PMSF). […]

[3] = system: C57BL/6J mice; experiment: Inhibition of contrast-induced renal injuries in murine contrast nephropathy model (Example 2); type: in vivo, mouse
Procedure: In order to confirm the ability of cilastatin to inhibit renal injuries, C57BL/6J mice were simultaneously administered with an iodinated contrast medium and cilastatin, and the results were analyzed.
Left kidneys were extracted from the C57BL/6J mice, and 14 days later, right kidney pedicles were ligated for 30 minutes. Thereafter, reperfusion was carried out. […]
a) Contrast medium+cilastatin-treated group: 200 μL of iomeprol (CM)+400 mg/kg cilastatin (CS) (100 LL) b) Contrast medium+normal saline-treated group: 200 μL of iomeprol (CM)+100 μL of NS For each of the groups, after 48 hours from the medication, blood and urine samples were collected, and serum Cr, MN and cystatin C levels, and urinary Cr, NAG and KIM-1 levels were measured. Further, right kidneys were extracted and histologically evaluated by immunostaining with KIM-1 and staining with PAS. […] Serum cystatin C and urinary KIM-1 measurements were contracted to Oriental Yeast Co., Ltd.
0.5±: Clear but weak granular staining present focally along the luminal surface of non-atrophic proximal tubules 1+: Clear but weak granular staining completely surrounding the luminal surface of non-atrophic proximal tubules 2+: Moderately intense granular staining completely surrounding the luminal surface of non-atrophic proximal tubules and extending into intercellular junctions 3+: Strong large granular staining completely surrounding the luminal surface of non-atrophic proximal tubules and extending into intercellular junctions […]
Individuals meeting these criteria were regarded as individuals with onset of contrast nephropathy.

[4] = target: megalin (Mus musculus, UniProt A2ARV4); experiment: EPMA mapping of iodine in kidney tissue of kidney-specific megalin complete knockout (NDRG1-Cre) and control mice (Reference Example 2); details: control (uninduced) mice; 200 μL tail vein; kidneys extracted 3 h later; FIGS. 4-9
Source text: EPMA is an electron microprobe (EMP) instrument that analyzes the constituent elements of a substance of interest by irradiating electron beams onto the substance and measuring the wavelengths and intensities of characteristic X-rays unique to the different elements, which are generated by the electron beams. […] The behaviors of contrast media per se can be verified by analyzing iodine content distribution.
In order to use right kidneys for analysis, 3 mm-thick sections containing a kidney pedicle portion were prepared, embedded in OCT compound, freeze-fixed with liquid nitrogen, and stored at −80° C.
Next, the stored sections were sliced at a thickness of 4 μm using a cryostat (CM1850, Leica Biosystems), and the obtained slices were attached onto carbon-coated grids and freeze-dried overnight.
378 μm^2 cortical areas in the prepared tissue slices were analyzed by EPMA (EPMA 1610, Shimadzu Corporation, Kyoto, Japan) to map iodine present in the structures of the contrast media.

megalin (Rattus norvegicus, UniProt P98158), sequence (P98158 26-4660): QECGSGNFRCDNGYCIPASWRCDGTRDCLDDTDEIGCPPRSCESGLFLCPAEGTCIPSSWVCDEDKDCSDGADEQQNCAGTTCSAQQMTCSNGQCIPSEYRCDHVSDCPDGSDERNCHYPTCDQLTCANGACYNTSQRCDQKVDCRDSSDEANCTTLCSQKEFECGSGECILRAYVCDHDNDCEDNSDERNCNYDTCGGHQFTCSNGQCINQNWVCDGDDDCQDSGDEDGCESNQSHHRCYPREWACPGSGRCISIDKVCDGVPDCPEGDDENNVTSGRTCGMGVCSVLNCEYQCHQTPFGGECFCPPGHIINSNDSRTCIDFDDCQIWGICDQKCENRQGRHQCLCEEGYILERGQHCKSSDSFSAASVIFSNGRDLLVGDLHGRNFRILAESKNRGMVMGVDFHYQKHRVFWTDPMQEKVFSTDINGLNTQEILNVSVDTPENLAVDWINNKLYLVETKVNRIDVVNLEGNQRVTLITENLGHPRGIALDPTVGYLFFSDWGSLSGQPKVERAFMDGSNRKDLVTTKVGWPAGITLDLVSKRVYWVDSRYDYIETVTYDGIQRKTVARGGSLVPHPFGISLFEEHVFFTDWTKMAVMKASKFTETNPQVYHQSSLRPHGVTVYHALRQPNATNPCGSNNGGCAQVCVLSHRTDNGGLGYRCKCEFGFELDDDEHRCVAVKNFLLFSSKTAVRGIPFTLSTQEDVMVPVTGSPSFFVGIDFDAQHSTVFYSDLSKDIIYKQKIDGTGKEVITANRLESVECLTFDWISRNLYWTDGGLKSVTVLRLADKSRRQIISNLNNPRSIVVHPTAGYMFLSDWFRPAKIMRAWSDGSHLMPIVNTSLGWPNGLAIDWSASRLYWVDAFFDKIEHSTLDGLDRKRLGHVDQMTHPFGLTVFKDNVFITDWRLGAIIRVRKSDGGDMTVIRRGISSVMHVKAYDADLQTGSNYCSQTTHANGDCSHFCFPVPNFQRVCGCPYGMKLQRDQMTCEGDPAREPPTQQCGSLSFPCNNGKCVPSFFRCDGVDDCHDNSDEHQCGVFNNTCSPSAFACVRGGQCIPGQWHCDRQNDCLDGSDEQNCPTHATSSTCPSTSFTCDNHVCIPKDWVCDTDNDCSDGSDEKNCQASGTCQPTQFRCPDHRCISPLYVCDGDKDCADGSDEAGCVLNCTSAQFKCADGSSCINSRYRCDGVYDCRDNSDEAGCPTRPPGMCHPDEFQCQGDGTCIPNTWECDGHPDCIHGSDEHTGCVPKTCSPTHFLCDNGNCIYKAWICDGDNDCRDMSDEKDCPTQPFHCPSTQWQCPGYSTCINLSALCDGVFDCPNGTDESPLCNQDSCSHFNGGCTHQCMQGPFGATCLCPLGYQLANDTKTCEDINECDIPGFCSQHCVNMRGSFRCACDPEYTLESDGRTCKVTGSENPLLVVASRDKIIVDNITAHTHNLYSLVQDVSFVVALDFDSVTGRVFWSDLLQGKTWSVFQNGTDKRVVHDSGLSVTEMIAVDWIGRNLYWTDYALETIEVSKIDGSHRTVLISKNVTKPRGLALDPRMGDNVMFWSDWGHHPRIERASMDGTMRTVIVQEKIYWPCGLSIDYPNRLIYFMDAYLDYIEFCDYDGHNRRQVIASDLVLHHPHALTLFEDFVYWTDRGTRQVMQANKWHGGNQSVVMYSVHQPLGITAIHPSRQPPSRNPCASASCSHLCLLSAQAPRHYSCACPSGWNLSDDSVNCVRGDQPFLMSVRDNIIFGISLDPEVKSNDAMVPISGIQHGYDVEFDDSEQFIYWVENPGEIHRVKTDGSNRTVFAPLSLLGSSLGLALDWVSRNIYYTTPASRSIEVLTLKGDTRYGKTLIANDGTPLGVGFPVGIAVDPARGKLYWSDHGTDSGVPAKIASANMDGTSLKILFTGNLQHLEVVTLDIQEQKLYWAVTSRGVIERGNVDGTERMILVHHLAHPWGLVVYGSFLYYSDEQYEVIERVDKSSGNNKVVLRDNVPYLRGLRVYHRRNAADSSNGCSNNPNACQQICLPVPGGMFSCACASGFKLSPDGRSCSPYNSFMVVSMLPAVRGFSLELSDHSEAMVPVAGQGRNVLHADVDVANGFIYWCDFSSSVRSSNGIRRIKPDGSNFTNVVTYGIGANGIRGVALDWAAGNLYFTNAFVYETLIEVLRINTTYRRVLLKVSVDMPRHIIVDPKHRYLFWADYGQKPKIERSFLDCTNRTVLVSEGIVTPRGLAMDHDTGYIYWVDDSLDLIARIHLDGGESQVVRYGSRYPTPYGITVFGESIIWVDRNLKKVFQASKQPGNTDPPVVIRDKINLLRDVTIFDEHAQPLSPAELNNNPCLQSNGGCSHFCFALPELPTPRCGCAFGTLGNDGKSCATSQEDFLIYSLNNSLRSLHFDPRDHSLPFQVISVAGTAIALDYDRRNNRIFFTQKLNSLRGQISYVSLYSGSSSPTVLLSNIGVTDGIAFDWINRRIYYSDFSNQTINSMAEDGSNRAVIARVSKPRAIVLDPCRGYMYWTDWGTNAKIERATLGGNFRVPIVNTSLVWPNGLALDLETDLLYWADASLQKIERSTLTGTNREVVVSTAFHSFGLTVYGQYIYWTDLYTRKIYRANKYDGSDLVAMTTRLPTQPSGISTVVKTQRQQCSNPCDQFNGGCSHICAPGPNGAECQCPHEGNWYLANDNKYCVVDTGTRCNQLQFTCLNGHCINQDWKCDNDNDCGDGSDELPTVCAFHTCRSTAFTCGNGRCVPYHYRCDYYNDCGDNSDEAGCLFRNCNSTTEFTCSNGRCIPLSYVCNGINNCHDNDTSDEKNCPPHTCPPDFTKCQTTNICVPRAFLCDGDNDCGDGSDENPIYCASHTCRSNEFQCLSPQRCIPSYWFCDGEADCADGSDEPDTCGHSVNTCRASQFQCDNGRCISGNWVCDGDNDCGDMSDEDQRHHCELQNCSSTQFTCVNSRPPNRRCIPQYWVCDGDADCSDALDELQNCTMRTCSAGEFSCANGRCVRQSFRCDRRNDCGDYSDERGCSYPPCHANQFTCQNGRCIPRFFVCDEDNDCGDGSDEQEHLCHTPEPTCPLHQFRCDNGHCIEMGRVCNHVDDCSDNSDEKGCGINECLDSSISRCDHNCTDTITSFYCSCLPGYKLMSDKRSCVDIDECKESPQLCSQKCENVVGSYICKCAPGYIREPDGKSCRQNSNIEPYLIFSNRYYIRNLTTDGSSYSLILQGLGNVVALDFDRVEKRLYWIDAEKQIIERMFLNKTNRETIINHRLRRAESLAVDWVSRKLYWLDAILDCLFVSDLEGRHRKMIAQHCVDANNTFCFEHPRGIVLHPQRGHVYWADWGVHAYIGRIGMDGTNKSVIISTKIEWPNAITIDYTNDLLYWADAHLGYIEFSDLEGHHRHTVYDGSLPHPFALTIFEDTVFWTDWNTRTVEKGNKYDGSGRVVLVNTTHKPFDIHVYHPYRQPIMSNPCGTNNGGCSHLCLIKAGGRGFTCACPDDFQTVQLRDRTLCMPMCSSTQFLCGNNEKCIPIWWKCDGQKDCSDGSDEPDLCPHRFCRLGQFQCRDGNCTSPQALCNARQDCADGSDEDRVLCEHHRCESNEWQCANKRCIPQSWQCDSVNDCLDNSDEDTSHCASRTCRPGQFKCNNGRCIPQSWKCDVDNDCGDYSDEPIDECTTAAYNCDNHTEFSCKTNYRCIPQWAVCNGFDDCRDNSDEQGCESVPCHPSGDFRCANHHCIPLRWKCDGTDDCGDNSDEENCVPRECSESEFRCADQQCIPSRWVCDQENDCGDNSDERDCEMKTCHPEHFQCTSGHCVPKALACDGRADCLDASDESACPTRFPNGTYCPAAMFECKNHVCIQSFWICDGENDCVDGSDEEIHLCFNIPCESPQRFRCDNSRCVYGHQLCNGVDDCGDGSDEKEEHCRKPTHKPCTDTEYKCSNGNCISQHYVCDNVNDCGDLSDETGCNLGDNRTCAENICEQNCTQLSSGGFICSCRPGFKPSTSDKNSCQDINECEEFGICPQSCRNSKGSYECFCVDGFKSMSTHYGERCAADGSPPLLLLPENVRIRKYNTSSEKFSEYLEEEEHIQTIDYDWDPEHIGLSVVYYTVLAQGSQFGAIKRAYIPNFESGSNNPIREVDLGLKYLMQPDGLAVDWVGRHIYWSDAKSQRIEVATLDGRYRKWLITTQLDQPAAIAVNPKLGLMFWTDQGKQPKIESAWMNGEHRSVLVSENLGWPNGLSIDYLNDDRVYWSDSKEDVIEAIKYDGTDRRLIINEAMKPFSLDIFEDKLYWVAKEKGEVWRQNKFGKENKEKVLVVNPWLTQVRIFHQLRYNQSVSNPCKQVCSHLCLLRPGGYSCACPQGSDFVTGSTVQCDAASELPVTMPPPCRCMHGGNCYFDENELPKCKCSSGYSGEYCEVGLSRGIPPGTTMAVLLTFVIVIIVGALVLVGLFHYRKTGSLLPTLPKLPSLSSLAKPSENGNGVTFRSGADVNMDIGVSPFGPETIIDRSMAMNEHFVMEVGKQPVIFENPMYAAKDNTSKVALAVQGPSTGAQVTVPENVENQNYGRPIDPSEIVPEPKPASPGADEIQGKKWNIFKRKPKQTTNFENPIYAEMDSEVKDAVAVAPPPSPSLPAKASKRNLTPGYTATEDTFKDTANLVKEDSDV

CN(C(=O)CO)c1c(I)c(C(=O)NCC(O)CO)c(I)c(C(=O)NCC(O)CO)c1I (centres unmarked) [iomeprol]
serum Cr compared to the control (NS) group ([1]; 200 μL iomeprol tail vein 24 h after reperfusion, evaluated 48 h after administration, FIG. 1): significant (t-test) increase
KIM-1 expression in kidney tissue (immunostaining) ([1]; 200 μL iomeprol, 48 h after administration, FIG. 2): widely expressed mainly in the S1 and S2 segments of renal proximal tubular epithelial cells
PAS staining of kidney tissue ([1]; 200 μL iomeprol, 48 h after administration, FIG. 3): formation of vacuoles was observed
megalin band in eluted samples after reaction of BBP with contrast medium-bound beads (WB) [2]: not detected
percentage of individuals with onset of contrast nephropathy ([3]; 200 μL iomeprol + 100 μL normal saline, 48 h after medication): 27%
KIM-1 expression in kidney tissue (immunostaining) ([3]; iomeprol + normal saline, individuals with increased serum creatinine, FIG. 17): widely expressed, mainly in the S1 and S2 segments
PAS staining of kidney tissue ([3]; iomeprol + normal saline, individuals with increased serum creatinine, FIG. 19): formation of vacuoles in renal proximal tubular epithelial cells was observed
iodine detected in kidney slices by EPMA, control mice [4]: High concentrations of iodine were detected

From patent US11304919B2, “Utilization of cilastatin in inhibiting renal disorder” (NIIGATA UNIVERSITY, priority 2018, dated 2022)
